What all share (experiment): NCI anticancer screen, dose series, 48 h
Experiment [1] concerns NCI/ADR-RES ovarian.
Experiment [2] deals with SR leukemia.
Experiment [3] relates to RPMI-8226 leukemia.
Experiment [4] concerns MALME-3M melanoma.
The test system of experiment [5] is MDA-MB-435.
Experiment [6] deals with PC-3 prostate.
In experiment [7] the test system is HOP-92 NSCLC.
For experiment [8], the system named is CAKI-1 renal.
For experiment [9], the system named is U251 CNS.
Experiment [10] deals with OVCAR-4 ovarian.

The values below come from PubChem BioAssay (NCI).

Each structure is given as a SMILES string.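 Grown in 96-well plates, cells were treated for 48 hours with each compound at five concentrations. Insufficient inhibition: endpoint recorded as highest concentration tested. At the GI50, growth is halved. At the TGI there is no net growth.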

For `C=C1CCC2(C#N)[C@H]3[C@H](CC[C@@H]2C)[C@@H](C)C[C@@H](CC(C)(C)NC(=O)CN2CCC2=O)[C@H]13` (stereo not given in full), the GI50 in experiment [1] is 11.3 µM; in [2] it was 4.02 µM; in experiment [3], 2.87 µM; in experiment [4] it was 8.56 µM; in [5], 6.19 µM; in experiment [6] it was 4.7 µM. Also, the GI50 in [7] is 3.12 µM; in [8] it was 10.1 µM; in [9] it was 4.27 µM; in experiment [10], 8.9 µM. The TGI in experiment [1] worked out at 38.4 µM; in experiment [2], 23.6 µM; in experiment [3], 15.9 µM; in [4], 23.9 µM; in [5] it was 23.8 µM; in [6], 36.6 µM. Moreover, the TGI was 27.5 µM in experiment [7], 28.8 µM in experiment [8], 16.6 µM in experiment [9] and over 100 µM in experiment [10].
For the compound `CC1=Nc2ccccc2/C1=C\c1c(C)[nH]c2ccccc12`, the TGI in [1] worked out at 38.3 µM; in [2], 47.5 µM; in experiment [3], 88.1 µM; in [4], 30.5 µM; in experiment [5] it was 26.7 µM; in experiment [6], 39.2 µM. In addition, the TGI is 17.4 µM in experiment [7], 29.1 µM in experiment [8], 33.3 µM in experiment [9] and 47.1 µM in [10].
For `OCc1ccc(-c2cscc2-c2ccc(CO)o2)o1`, the GI50 was 32.9 µM in experiment [1]; over 100 µM in experiment [2]; 28.4 µM in experiment [3]; over 100 µM in experiment [4]; over 100 µM in experiment [5]; over 75 µM in experiment [6]. Besides, the GI50 was 16.1 µM in [7], 5 µM in experiment [8], 44.1 µM in experiment [9] and 4.79 µM in experiment [10]. In addition, the TGI in [1], in experiment [2], in experiment [3], in experiment [4], in [5] and in experiment [6] was over 100 µM throughout. For the same compound, the TGI in [7] is over 94 µM; in experiment [8] it was over 100 µM; in experiment [9], over 100 µM; in [10], 49.4 µM.
Take `Cc1cc(O)c(C2=NN(c3ccc(S(N)(=O)=O)cc3)C(c3ccc(Cl)cc3)C2)c(C)c1Cl` (stereo not given): the GI50 in experiment [1] was 4.63 µM; in experiment [2] it was 1.28 µM; in experiment [3], 3.99 µM; in [4], 14.8 µM; in experiment [5], 3.57 µM; in experiment [6], 4.44 µM. Also, the GI50 is 3.74 µM in experiment [7], 4.38 µM in experiment [8], 3.34 µM in [9] and 7.69 µM in experiment [10]. In addition, the TGI in experiment [1] is 17 µM; in [2], 5.02 µM; in [3], 17.8 µM; in experiment [4], 35.2 µM; in experiment [5], 14.8 µM; in experiment [6], 16.8 µM. Further, the TGI is 17.6 µM in experiment [7], 18.2 µM in experiment [8], 13.5 µM in [9] and 21.2 µM in experiment [10].
On to `Cc1ccc(N=Nc2c(O)ccc3ccccc23)cc1`, for which the TGI in experiment [1], in [2], in [3], in [4], in experiment [5] and in experiment [6] was over 100 µM in each case. Besides, the TGI in [7], in experiment [8], in experiment [9] and in [10] was over 100 µM in each case.
As for `c1cncc(CNCc2cccnc2)c1`, the TGI in [1], in [2], in [3], in [4], in [5] and in experiment [6] was over 100 µM each time. The TGI in experiment [7], in experiment [8], in [9] and in experiment [10] was over 100 µM throughout.
As for `Cc1c2cc(Cl)c3ccccc3c2c[n+]2ccccc12`, the GI50 in experiment [1] is over 100 µM; in experiment [2], 2.4 µM; in experiment [3], 7.75 µM; in [4] it was 0.378 µM; in [5], 4.1 µM; in experiment [6] it was 2.81 µM. Further, the GI50 in [7] is 2.04 µM; in [8], 21.8 µM; in [9] it was 0.468 µM; in experiment [10], 2.71 µM. The TGI in [1] was over 100 µM; in experiment [2], 15.2 µM; in experiment [3], 46 µM; in [4], 2.8 µM; in experiment [5], 17.9 µM; in experiment [6], 20.1 µM. In addition, the TGI in [7] was 27.4 µM; in experiment [8], over 100 µM; in experiment [9], 3.61 µM; in experiment [10], 17.5 µM.
Take `COC(=O)COc1ccc(/C=C2/N=C(c3ccccc3)N(c3c(C)n(C)n(-c4ccccc4)c3=O)C2=O)cc1`: the GI50 in [1] is 54.8 µM; in experiment [2], 23.1 µM; in [3], 21.7 µM; in experiment [4], 19.7 µM; in experiment [5], 19.7 µM; in [6], 19.6 µM. Moreover, the GI50 is 25.1 µM in [7], over 100 µM in [8], 67.6 µM in [9] and 26.5 µM in experiment [10]. Further, the TGI was over 100 µM in experiment [1]; 69.3 µM in experiment [2]; 44.8 µM in experiment [3]; 40.6 µM in experiment [4]; 47 µM in experiment [5]; 37.9 µM in experiment [6]. Moreover, the TGI in experiment [7] is 55.1 µM; in experiment [8], over 100 µM; in experiment [9] it was over 100 µM; in experiment [10] it was 70.9 µM.
`O=C1CC(c2[nH]nc3ccccc23)C(=O)N1c1ccccc1` (stereo not given): the TGI in [1], in [2], in experiment [3], in experiment [4], in experiment [5] and in experiment [6] was over 100 µM each time. Further, the TGI in experiment [7], in experiment [8], in experiment [9] and in [10] was over 100 µM in each case.
